Where two headings read alike, the source gives them in different places.
Experiments:
[1] = system: mice with hypertensive heart disease induced by angiotensin II (AngII); assay: AngII-induced hypertensive heart disease mouse model: serum aldosterone (ALD) (ELISA); assay type: in vivo
Method: (§1) After male C57BL/6 mice were acclimated to the environment, they were randomly divided into 10 groups, namely the blank control group, the AngII model group, the AngII+telmisartan 10 mg/kg positive control group, the AngII+spironolactone 20 mg/kg positive control group, the AngII+Formula I (0.1, 0.5, 2 mg/kg) groups, and the AngII+Formula II (0.1, 0.5, 2 mg/kg) groups. The mice in the drug administration groups were intragastrically administered the corresponding doses of Formula I and Formula II compounds once a day at the same time. The mice in the positive control groups were intragastrically administered the corresponding doses of telmisartan and spironolactone once a day. The mice in the blank control group and the model group were given the same amount of solvent (0.5% CMC-Na solution). The administration volume was 10 mL/kg, and the administration was continuous for 14 days. From the 1st to the 13th day of drug administration, AngII modeling was carried out. The mice in the blank control group were subcutaneously injected with normal saline, and the mice in the other groups were subcutaneously injected with 1.44 mg/kg of AngII (modeling was carried out 2 h after drug administration), for a total of 13 times. Detection of serum aldosterone (ALD) level: After the experiment, the animals were sacrificed by enucleation to obtain blood. The blood was left to stand at room temperature for 2 hours, and then centrifuged at 3500 rpm for 20 minutes to separate the serum. The content of serum ALD was determined according to the instructions of the ELISA kit.

[2] = system: mice with hypertensive heart disease induced by angiotensin II (AngII); assay: AngII-induced hypertensive heart disease mouse model: serum cTn-T and CK-MB (ELISA); assay type: in vivo
Method: as §1, with “biomarkers of myocardial injury:” for “aldosterone (ALD) level:”, “contents” for “content”, “cardiac troponin cTn-T and myocardial enzyme CK-MB were” for “ALD was”

Rat H9C2 cardiomyocytes [3] = details: 800 μM ISO 24 h, MTT 570 nm
Method: Rat H9C2 cardiomyocytes in the logarithmic growth phase were seeded into 96-well plates at a density of 7×10^4 cells/mL, with 100 μL per well. […] After 24 hours of culture, the drug groups were treated with 800 μM ISO and the corresponding concentrations of drugs. The ISO model group received 800 μM ISO and an equal volume of DMSO, and the blank control group received an equal volume of DMSO. The cells were then cultured for another 24 hours. After removing the supernatant, 100 μL MTT solution (0.5 mg/mL) was added to each well and incubated in the cell culture incubator for 4 hours. After removing the supernatant, 150 μL DMSO was added to each well, mixed by shaking for 10 minutes, and the absorbance was measured at 570 nm using a microplate reader to calculate cell viability. Cell viability (%)=[(As−Ab)/(Ac−Ab)]×100%. As: Experimental well (medium with cells, MTT, ISO); Ac: Control well (medium with cells, MTT, without ISO); Ab: Blank well (medium without cells, MTT, without ISO).

[4] = system: mice with hypertensive heart disease induced by angiotensin II (AngII); assay: AngII-induced hypertensive heart disease mouse model: serum cAMP (ELISA); assay type: in vivo
Method: as §1, with “CAMP” for “aldosterone (ALD)”, “cAMP” for “ALD”

Rat H9C2 cardiomyocytes [5] = assay: cells; details: H9c2, 24 h, read-out: Cell viability
Method: Rat H9C2 cardiomyocytes in the logarithmic growth phase were seeded at a density of 7×10^4 cells/mL into 96-well plates, with 100 μL per well. […] After 24 hours of culture, the drug treatment groups were respectively added with 50 μM Ang II and the corresponding concentration of the drug. The Ang II model group was added with 50 μM Ang II and an equal volume of DMSO, and the blank control group was added with an equal volume of DMSO. Then, the cells were cultured for another 24 hours. After removing the supernatant, 100 μL of MTT solution (0.5 mg/mL) was added to each well, and the plates were placed in an incubator for 4 hours. After removing the supernatant again, 150 μL of DMSO was added to each well, and the mixture was shaken and mixed evenly for 10 minutes. The absorbance was measured at 570 nm using a microplate reader to calculate the cell viability.
Cell viability (%)=[(As−Ab)/(Ac−Ab)]×100% • As: Experimental well (culture medium containing cells, MTT, Ang II); • Ac: Control well (culture medium containing cells, MTT, without Ang II); • Ab: Blank well (culture medium without cells, MTT, without Ang II).

[6] = 0.1 mg/kg intragastric once a day 14 days
[7] = 0.5 mg/kg intragastric once a day 14 days
[8] = 2 mg/kg intragastric once a day 14 days
[9] = 10 mg/kg intragastric once a day 14 days
[10] = 20 mg/kg intragastric once a day 14 days

Compound	ALD [1, 6]	ALD [1, 7]	ALD [1, 8]	CK-MB [2, 6]	cTn-T [2, 6]	CK-MB [2, 7]	cTn-T [2, 7]	CK-MB [2, 8]	cTn-T [2, 8]	OD (Rat H9C2 cardiomyocytes [3]; 0.1 μM)	OD (Rat H9C2 cardiomyocytes [3]; 0.3 μM)	OD (Rat H9C2 cardiomyocytes [3]; 1 μM)	OD (Rat H9C2 cardiomyocytes [3]; 3 μM)	OD (Rat H9C2 cardiomyocytes [3]; 5 μM)	OD (Rat H9C2 cardiomyocytes [3]; 10 μM)	cAMP [4, 6]	cAMP [4, 7]	cAMP [4, 8]	viability at 0.1 µM (Rat H9C2 cardiomyocytes [5])	viability at 0.3 µM (Rat H9C2 cardiomyocytes [5])	further results
O=c1c(Cc2ccc3c(c2)OCO3)coc2cc(O)cc(O)c12 [Formula I]	206.80 ± 16.10 pg/mL	192.69 ± 14.38 pg/mL	199.41 ± 31.27 pg/mL	15.73 ± 1.79 ng/mL	167.25 ± 24.56 ng/L	15.17 ± 1.63 ng/mL	165.79 ± 23.78 ng/L	15.72 ± 1.89 ng/mL	164.52 ± 19.68 ng/L	0.983 ± 0.144	0.929 ± 0.105	0.969 ± 0.065^###&&	0.926 ± 0.045	0.807 ± 0.088	0.839 ± 0.091^###&	27.73 ± 3.03 nmol/L	27.42 ± 1.12 nmol/L	29.04 ± 5.17 ^ nmol/L	75.1%	72.5%	viability at 1 µM (Rat H9C2 cardiomyocytes [5]): 73.5%; viability at 3 µM (Rat H9C2 cardiomyocytes [5]): 75.9%; viability at 10 µM (Rat H9C2 cardiomyocytes [5]): 76.4%
CCCc1nc2c(C)cc(-c3nc4ccccc4n3C)cc2n1Cc1ccc(-c2ccccc2C(=O)O)cc1 [Telmisartan, reference compound]																					ALD [1, 9]: 162.74 ± 7.38 pg/mL; CK-MB [2, 9]: 12.72 ± 1.09 ng/mL; cTn-T [2, 9]: 134.07 ± 17.50 ng/L; cAMP [4, 9]: 25.18 ± 1.10 nmol/L
CC(=O)S[C@@H]1CC2=CC(=O)CC[C@]2(C)[C@H]2CC[C@@]3(C)[C@@H](CC[C@@]34CCC(=O)O4)[C@H]12 [Spironolactone, reference compound]																					ALD [1, 10]: 209.03 ± 25.11 pg/mL; CK-MB [2, 10]: 18.86 ± 1.40 ^ ng/mL; cTn-T [2, 10]: 169.17 ± 21.95 ng/L; cAMP [4, 10]: 29.34 ± 3.04 ^ nmol/L
Cc1c(O)cc(O)c2c(=O)c(Cc3ccc4c(c3)OCO4)coc12 [Formula II, 3-(benzo[d][1,3]dioxol-5-ylmethyl)-5,7-dihydroxy-8-methyl-4H-chromen-4-one]	186.44 ± 21.59 pg/mL	177.28 ± 21.57 pg/mL	185.89 ± 12.61 pg/mL	15.36 ± 2.41 ng/mL	153.56 ± 13.05 ng/L	14.07 ± 1.33 ng/mL	145.15 ± 15.79 ng/L	13.39 ± 2.57 ng/mL	136.64 ± 18.24 ng/L	0.964 ± 0.132	0.964 ± 0.031	0.904 ± 0.072^###&&	0.963 ± 0.064	0.784 ± 0.067	0.806 ± 0.067	24.81 ± 1.63 nmol/L	26.38 ± 1.81 nmol/L	24.42 ± 2.07 nmol/L	81.4%	73.5%	viability at 1 µM (Rat H9C2 cardiomyocytes [5]): 77.6%; viability at 3 µM (Rat H9C2 cardiomyocytes [5]): 73%; viability at 10 µM (Rat H9C2 cardiomyocytes [5]): 75.6%
